Converted amounts (≈) assume the structure as drawn.
Key:
[1] = tested on: Maver1; assay: cells; conditions: Homo sapiens, Maver1, 72 h
Description: Anticancer activity against human MAVER-1 cells assessed as inhibition of cell proliferation measured after 72 hrs by Cell Titer-Glo Luminescent

[2] = tested on: HCT-116; assay: Anticancer activity against human HCT-116 cells assessed as inhibition of cell proliferation measured after 48 hrs by MTT assay; type: functional, cell-based; conditions: HCT-116, 48 h
[3] = tested on: HeLa; assay: Anticancer activity against human HeLa cells assessed as inhibition of cell proliferation measured after 24 hrs by MTT assay; type: functional, cell-based
[4] = tested on: MCF7; assay: Anticancer activity against human MCF7 cells assessed as inhibition of cell proliferation measured after 24 hrs by MTT assay; type: functional, cell-based; conditions: MCF7, 24 h
[5] = tested on: KB; assay: Anticancer activity against human KB cells assessed as inhibition of cell proliferation measured after 16 hrs by MTT assay; type: functional, cell-based
[6] = tested on: HT-29; assay: Anticancer activity against human HT-29 cells assessed as inhibition of cell proliferation measured after 16 hrs by MTT assay; type: functional, cell-based; conditions: HT-29, 16 h
[7] = tested on: HepG2; assay: Anticancer activity against human HepG2 cells assessed as inhibition of cell proliferation measured after 16 hrs by MTT assay; type: functional, cell-based; conditions: HepG2, 16 h
[8] = tested on: HepG2; assay: Anticancer activity against human HepG2 cells assessed as inhibition of cell proliferation by MTT assay; type: functional, cell-based
[9] = Selectivity index, ratio of IC50 for cytotoxicity against FHC cells to IC50 for antiproliferative activity against KM12 cells; type: toxicity, cell-based; conditions: human; read-out: Ratio IC50
[10] = tested on: KM12; assay: Anticancer activity against human KM12 cells assessed as inhibition of cell proliferation measured after 72 hrs by MTT assay; type: functional, cell-based; conditions: KM12, 72 h
[11] = tested on: Raji; assay: Anticancer activity against human Raji cells assessed as inhibition of cell proliferation preincubated for 1 hr followed by compound addition measured after 1 hrs by Cell Titer-Glo assay; type: functional, cell-based
[12] = target: Tyrosine-protein kinase BTK (Homo sapiens, UniProt Q06187); assay: Inhibition of human BTK using biotin as a substrate preincubated for 5 mins followed by substrate addition incubated for 30 mins in presence of ATP by fluorescence based assay
Chain of Tyrosine-protein kinase BTK (Q06187 whole entry): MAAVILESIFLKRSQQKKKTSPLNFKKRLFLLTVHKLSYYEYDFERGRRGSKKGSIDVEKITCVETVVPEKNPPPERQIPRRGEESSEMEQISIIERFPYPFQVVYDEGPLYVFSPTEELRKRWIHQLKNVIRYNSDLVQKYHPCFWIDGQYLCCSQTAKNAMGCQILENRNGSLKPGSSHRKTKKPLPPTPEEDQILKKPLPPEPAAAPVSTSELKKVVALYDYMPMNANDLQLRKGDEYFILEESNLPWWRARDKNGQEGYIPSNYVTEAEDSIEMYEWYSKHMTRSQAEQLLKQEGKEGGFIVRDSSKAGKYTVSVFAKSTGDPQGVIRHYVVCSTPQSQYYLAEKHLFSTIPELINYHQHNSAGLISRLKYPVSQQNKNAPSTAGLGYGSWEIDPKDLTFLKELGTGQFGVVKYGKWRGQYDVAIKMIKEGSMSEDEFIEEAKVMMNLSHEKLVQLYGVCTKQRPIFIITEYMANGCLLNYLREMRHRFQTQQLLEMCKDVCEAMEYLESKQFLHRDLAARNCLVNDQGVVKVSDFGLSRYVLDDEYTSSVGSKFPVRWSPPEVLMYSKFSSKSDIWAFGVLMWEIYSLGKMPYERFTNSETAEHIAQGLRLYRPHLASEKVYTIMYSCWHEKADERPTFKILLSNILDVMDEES

[13] = tested on: Ramos; assay: Anticancer activity against human Ramos cells assessed as inhibition of cell proliferation preincubated for 1 hr followed by compound addition measured after 1 hrs by Cell Titer-Glo assay; type: functional, cell-based
[14] = tested on: Panel NCI-60 (60 carcinoma cell lines); assay: Anticancer activity against human Panel NCI-60 (60 carcinoma cell lines) assessed as inhibition of cell proliferation; type: functional
[15] = tested on: HCT-116; assay: Anticancer activity against human HCT-116 cells assessed as inhibition of cell proliferation measured after 18 hrs by spectrophotometric analysis relative to control; type: functional
[16] = tested on: MCF7; assay: Anticancer activity against human MCF7 cells assessed as inhibition of cell proliferation measured after 18 hrs by spectrophotometric analysis relative to control; type: functional
[17] = target: Tyrosine-protein kinase JAK2 (Homo sapiens, UniProt O60674); assay: Inhibition of human JAK2 using biotin as a substrate preincubated for 5 mins followed by substrate addition incubated for 30 mins in presence of ATP by fluorescence based assay
Chain of Tyrosine-protein kinase JAK2 (O60674 whole entry): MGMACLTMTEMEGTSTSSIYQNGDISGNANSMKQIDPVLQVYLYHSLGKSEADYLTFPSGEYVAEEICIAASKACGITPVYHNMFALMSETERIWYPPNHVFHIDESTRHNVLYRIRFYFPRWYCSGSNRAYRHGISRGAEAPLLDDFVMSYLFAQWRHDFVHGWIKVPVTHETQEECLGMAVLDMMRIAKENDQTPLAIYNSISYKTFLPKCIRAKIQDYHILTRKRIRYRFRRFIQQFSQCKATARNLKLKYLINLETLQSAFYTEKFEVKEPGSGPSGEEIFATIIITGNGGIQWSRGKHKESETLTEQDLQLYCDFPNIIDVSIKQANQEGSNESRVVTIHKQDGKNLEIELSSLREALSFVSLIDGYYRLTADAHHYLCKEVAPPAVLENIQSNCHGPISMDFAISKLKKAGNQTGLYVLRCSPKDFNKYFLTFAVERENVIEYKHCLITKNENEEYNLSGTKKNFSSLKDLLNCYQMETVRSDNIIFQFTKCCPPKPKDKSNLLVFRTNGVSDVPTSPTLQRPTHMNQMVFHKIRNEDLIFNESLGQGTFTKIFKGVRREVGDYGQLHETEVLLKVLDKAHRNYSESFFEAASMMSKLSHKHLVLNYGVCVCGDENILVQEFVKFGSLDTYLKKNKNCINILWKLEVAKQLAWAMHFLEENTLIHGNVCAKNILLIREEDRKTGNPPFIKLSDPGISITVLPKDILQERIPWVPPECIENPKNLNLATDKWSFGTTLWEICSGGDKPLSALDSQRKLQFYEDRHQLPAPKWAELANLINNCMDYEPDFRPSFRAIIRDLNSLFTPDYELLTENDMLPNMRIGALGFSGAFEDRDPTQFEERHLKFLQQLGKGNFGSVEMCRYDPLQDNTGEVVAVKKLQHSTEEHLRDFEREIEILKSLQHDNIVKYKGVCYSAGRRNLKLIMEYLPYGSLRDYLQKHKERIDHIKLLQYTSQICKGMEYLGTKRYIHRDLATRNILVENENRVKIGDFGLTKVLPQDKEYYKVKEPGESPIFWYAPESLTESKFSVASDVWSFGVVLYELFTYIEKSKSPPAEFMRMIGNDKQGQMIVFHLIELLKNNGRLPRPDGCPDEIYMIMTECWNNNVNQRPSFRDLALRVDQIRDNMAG

[18] = tested on: MCF7; assay: Anticancer activity against human MCF7 cells assessed as inhibition of cell proliferation measured after 24 hrs by MTT based microplate ELISA reader analysis; type: functional; conditions: MCF7, 24 h
[19] = Inhibition of KDM (unknown origin) incubated for 30 mins in presence of ATP by ELISA assay; set-up: species or system Homo sapiens
[20] = Anticancer activity against human MINO cells assessed as inhibition of cell proliferation measured after 72 hrs by Cell Titer-Glo Luminescent; type: functional, cell-based
[21] = tested on: Z-138; assay: Anticancer activity against human Z138 cells assessed as inhibition of cell proliferation measured after 72 hrs by Cell Titer-Glo Luminescent; type: functional, cell-based; conditions: Z-138, 72 h
[22] = tested on: JeKo-1; assay: Anticancer activity against human JeKo-1 cells assessed as inhibition of cell proliferation measured after 72 hrs by Cell Titer-Glo Luminescent; type: functional, cell-based; conditions: JeKo-1, 72 h
[23] = tested on: MCF7; assay: Anticancer activity against human MCF7 cells assessed as inhibition of cell proliferation measured after 48 hrs by MTT assay; type: functional, cell-based; conditions: MCF7, 48 h
[24] = tested on: HepG2; assay: Anticancer activity against human HepG2 cells assessed as inhibition of cell proliferation measured after 72 hrs by SRB calorimetric assay; type: functional, cell-based; conditions: HepG2, 72 h
[25] = tested on: MCF7; assay: Cell cycle arrest in human MCF7 cells assessed as accumulation at G2/M phase measured after 48 hrs by […] propidium iodide staining based flow cytometry analysis; type: functional; conditions: MCF7, 48 h
[26] = target: Epidermal growth factor receptor (Homo sapiens, UniProt P00533); assay: Inhibition of EGFR (unknown origin) by EGFR Kinase Assay Kit method
Chain of Epidermal growth factor receptor (P00533 whole entry): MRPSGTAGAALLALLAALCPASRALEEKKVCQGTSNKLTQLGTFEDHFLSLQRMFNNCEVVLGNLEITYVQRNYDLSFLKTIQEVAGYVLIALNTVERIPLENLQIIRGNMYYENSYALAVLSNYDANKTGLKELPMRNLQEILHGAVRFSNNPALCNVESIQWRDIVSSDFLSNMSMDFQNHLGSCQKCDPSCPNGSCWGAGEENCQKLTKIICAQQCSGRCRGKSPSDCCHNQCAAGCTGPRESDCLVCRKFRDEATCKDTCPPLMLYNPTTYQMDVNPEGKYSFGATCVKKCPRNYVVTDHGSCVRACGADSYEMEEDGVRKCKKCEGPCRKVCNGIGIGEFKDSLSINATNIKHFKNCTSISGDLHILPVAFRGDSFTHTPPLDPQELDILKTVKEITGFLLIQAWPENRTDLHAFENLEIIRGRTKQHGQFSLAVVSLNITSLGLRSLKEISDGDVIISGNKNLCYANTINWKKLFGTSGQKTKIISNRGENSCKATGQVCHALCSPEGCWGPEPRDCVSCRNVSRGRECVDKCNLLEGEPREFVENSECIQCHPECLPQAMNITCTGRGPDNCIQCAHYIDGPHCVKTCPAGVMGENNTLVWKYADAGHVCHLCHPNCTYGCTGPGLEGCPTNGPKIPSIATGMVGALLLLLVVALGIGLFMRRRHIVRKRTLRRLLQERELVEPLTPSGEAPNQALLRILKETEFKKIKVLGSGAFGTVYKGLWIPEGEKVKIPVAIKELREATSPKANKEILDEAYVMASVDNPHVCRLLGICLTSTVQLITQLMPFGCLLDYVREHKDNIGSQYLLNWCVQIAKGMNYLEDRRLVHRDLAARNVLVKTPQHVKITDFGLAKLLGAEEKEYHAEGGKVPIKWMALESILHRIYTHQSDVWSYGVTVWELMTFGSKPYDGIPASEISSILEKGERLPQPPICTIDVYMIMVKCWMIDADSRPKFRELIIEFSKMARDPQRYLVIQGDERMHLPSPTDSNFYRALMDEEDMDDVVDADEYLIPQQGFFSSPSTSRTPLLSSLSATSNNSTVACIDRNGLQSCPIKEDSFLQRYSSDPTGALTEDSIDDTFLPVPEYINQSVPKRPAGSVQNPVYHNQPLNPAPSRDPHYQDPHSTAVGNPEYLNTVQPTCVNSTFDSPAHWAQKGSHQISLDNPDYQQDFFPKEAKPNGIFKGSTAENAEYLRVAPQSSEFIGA

[27] = target: cGMP-specific 3',5'-cyclic phosphodiesterase (Homo sapiens, UniProt O76074); assay: Inhibition of PDE5 (unknown origin)
[28] = tested on: HeLa; assay: Anticancer activity against human HeLa cells assessed as inhibition of cell proliferation measured after 24 hrs by MTT based microplate ELISA reader analysis; type: functional
[29] = tested on: A549; assay: Anticancer activity against human A549 cells assessed as inhibition of cell proliferation measured after 48 hrs by MTT assay based microtiter plate analysis; type: functional; conditions: A549, 48 h

## Nc1ncnc2c1c(-c1ccc(Oc3ccccc3)nc1)nn2C1CCCN(C(=O)CCl)C1 (centres undefined)
[1]
  IC50: < 1000 nM

## CCNc1nn2c(-c3ccccc3)cc(=O)[nH]c2c1C(=O)Nc1ccc([N+](=O)[O-])cc1
[2]
  IC50: 1510 nM

## Nc1nc(Cl)c2cnn(Cc3ccc(Br)cc3F)c2n1
[3]
  IC50: 22.4 µM
[4]
  IC50: 13.9 µM

## CCOC(=O)C1=C(C)n2nc(CC#N)c(C#N)c2NC1c1ccccc1 (centres undefined)
[5]
  IC50: 7.58 µM
[6]
  IC50: 8.12 µM
[7]
  IC50: 4.41 µM

## CCOC(=O)C1=C(C)n2nc(CC#N)c(C#N)c2NC1c1ccc(N(C)C)cc1 (centres undefined)
[5]
  IC50: 8.31 µM
[6]
  IC50: 9.23 µM
[7]
  IC50: 9.41 µM

## CSc1c(C#N)c(N)nc2c(/N=N/N3C(=O)c4ccccc4C3=O)c(O)nn12
[3]
  IC50: 5.57 µM
[8]
  IC50: 5.6 µg/mL (≈ 14.2 µM)
[4]
  IC50: 4.17 µM

## CCOC(=O)C1=C(C)n2nc(CC#N)c(C#N)c2NC1c1cc(Br)ccc1O (centres undefined)
[5]
  IC50: 6.94 µM
[6]
  IC50: 5.62 µM
[7]
  IC50: 9.64 µM

## CSc1nc(-c2ccco2)c2c(N)n[nH]c2n1
[9]
  selectivity ratio: 18.8
[10]
  IC50: 1730 nM

## C=CC(=O)N1CCCC(N2NC(c3cc(C(C)(C)O)n(C)n3)c3c(N)ncnc32)C1 (centres undefined)
[11]
  IC50: 1800 nM
[12]
  IC50: 7.95 nM
[13]
  IC50: 8.91 µM

## Nc1ncnc2c1c(Cc1c[nH]c3ccccc13)nn2CC1CCNCC1
[14]
  GI50: 19 nM

## Cc1nn(-c2ccccc2)c2nc(C)n(Cc3cn(-c4ccc(Cl)cc4)nn3)c(=O)c12
[15]
  inhibition (INH): 75.4%
[16]
  inhibition (INH): 75.4%

## Cn1nc(C2NN(C3CCCN(C(=O)CC#N)C3)c3ncnc(N)c32)cc1C(C)(C)O (centres undefined)
[17]
  IC50: 8 nM

## C=CC(=O)N1CCC(N2NC(c3cc(C(C)(C)O)n(C)n3)c3c(N)ncnc32)C1 (centres undefined)
[17]
  IC50: 7.2 nM

## N#Cc1c(-c2ccccc2)nn2c(-c3cccc4ccccc34)ccnc12
[18]
  IC50: 3 µM

## Cc1cc(=O)n2nc(CC#N)c(C#N)c2[nH]1
[19]
  IC50: 4050 nM

## O=C(NCc1cc(C(F)(F)F)cc(C(F)(F)F)c1)NC1CCN(c2ncnc3[nH]ncc23)CC1
[20]
  IC50: < 1000 nM
[21]
  IC50: < 1000 nM
[22]
  IC50: < 1000 nM

## CC1=CC(C)Nc2c(C(=O)Nc3c(C)cccc3C)c(Nc3ccccc3)nn21 (centres undefined)
[23]
  IC50: 7.68 µM

## Cn1nc(C2NN(C3CCCN(C(=O)CC#N)C3)c3ncnc(N)c32)cc1C=O (centres undefined)
[17]
  IC50: 9.7 nM

## Cc1cc(=O)n2nc(/C(C#N)=C\c3ccco3)c(C#N)c2[nH]1
[19]
  IC50: 1910 nM

## CSc1nc(-c2cccs2)c2c(N)n[nH]c2n1
[9]
  selectivity ratio: 35.5
[10]
  IC50: 1210 nM

## COc1ccc(C2c3c(-c4ccccc4)n[nH]c3Nc3[nH]c(=S)[nH]c(=S)c32)cc1 (centres undefined)
[24]
  IC50: 9.2 µM

## COc1cc(/C=C(/C#N)c2nn3c(=O)cc(C)[nH]c3c2C#N)ccc1O
[19]
  IC50: 2310 nM
[25]
  IC50: 1910 nM

## COc1nc2ccccc2cc1-c1nc2c(cnn2-c2ccc(Br)cc2)c(=O)[nH]1
[3]
  IC50: 8.72 µM
[26]
  IC50: 5.83 µM
[27]
  IC50: 1570 nM
[4]
  IC50: 6.56 µM

## COc1ccc(-c2c(C#N)cnc3c(C#N)c(-c4ccccc4)nn23)cc1
[28]
  IC50: 7.8 µM

## COc1cccc2c1C(=O)c1c(O)c3c(c(O)c1C2=O)C[C@@](O)(C(=O)CO)C[C@@H]3O[C@H]1C[C@H](N)[C@H](O)[C@H](C)O1 [DOXORUBICIN]
[18]
  IC50: 5.9 µM
[28]
  IC50: 8.1 µM

## C#Cc1cccc(Nc2ncnc3cc(OCCOC)c(OCCOC)cc23)c1 [ERLOTINIB]
[29]
  IC50: 11.7 µM

## O=c1[nH]cc(F)c(=O)[nH]1 [FLUOROURACIL]
[9]
  selectivity ratio: 1.93
[10]
  IC50: 12300 nM
